Patent EP4755888A1 (ILAb Co., Ltd., priority 2023, dated 2025)

Target: PD-1/PD-L1 (Homo sapiens, UniProt Q9NZQ7)
Test: TR-FRET PD-1/PD-L1 binding inhibition at the molecular level (free proteins)
Conditions: Tag1-PD-L1 and Tag2-PD-1 proteins, twelve concentrations from 200 nM, 2 hours at room temperature, read-out: FRET assay (IC50)
Outline: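 HTRF read-out at 665/620 nm after 2 h at room temperature. Detection used anti-Tag1 Eu cryptate plus anti-Tag2 XL665 antibodies. Tagged PD-L1 and PD-1 proteins were pre-mixed with compound across twelve […] 1:2 dilutions starting at 200 nM.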

Chain of PD-1/PD-L1 (Q9NZQ7 19-238 limits assumed): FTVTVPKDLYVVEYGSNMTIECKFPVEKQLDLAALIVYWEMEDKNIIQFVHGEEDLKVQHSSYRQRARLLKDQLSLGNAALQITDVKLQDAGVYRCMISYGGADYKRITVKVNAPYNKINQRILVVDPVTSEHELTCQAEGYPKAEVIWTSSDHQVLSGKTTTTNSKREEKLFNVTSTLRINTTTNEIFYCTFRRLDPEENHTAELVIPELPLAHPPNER

Row | SMILES | IC50
1 | N#Cc1cc(CN2CC[C@@H](C(=O)O)C2)cc2nc(-c3cccc(-c4cccc(NC(=O)c5cc6n(n5)CCCC6NC[C@@H]5CCC(=O)N5)c4Cl)c3Cl)oc12 (stereo partly drawn) [Compound 68, (3R)-1-((7-cyano-2-(2,2'-dichloro-3'-(4-((((S)-5-oxopyrrolidin-2-yl)methyl)amino)-4,5,6,7-tetrahydropyrazolo[1,5-a]pyridine-2-carboxamido)-[1,1'-biphenyl]-3-yl)benzo[d]oxazol-5-yl)methyl)pyrrolidine-3-carboxylic acid] | < 10 nM
2 | CC(=O)NCCNC1CCCn2nc(C(=O)Nc3cccc(-c4cccc(-c5nc6cc(CN7CC[C@@H](C(=O)O)C7)cc(C#N)c6o5)c4Cl)c3Cl)cc21 (stereo partly drawn) [Compound 69, (3R)-1-((2-(3'-(4-((2-acetamidoethyl)amino)-4,5,6,7-tetrahydropyrazolo[1,5-a]pyridine-2-carboxamido)-2,2'-dichloro-[1,1'-biphenyl]-3-yl)-7-cyanobenzo[d]oxazol-5-yl)methyl)pyrrolidine-3-carboxylic acid] | < 10 nM
3 | N#Cc1cc(CN2CC[C@@H](C(=O)O)C2)cc2nc(-c3cccc(-c4cccc(NC(=O)c5cc6n(n5)CCCC6NCCO)c4Cl)c3Cl)oc12 (stereo partly drawn) [Compound 70, (3R)-1-((7-cyano-2-(2,2'-dichloro-3'-(4-((2-hydroxyethyl)amino)-4,5,6,7-tetrahydropyrazolo[1,5-a]pyridine-2-carboxamido)-[1,1'-biphenyl]-3-yl)benzo[d]oxazol-5-yl)methyl)pyrrolidine-3-carboxylic acid] | < 10 nM
4 | Cc1c(NC(=O)c2ccc(CNCCO)cn2)cccc1-c1cccc(NC(=O)c2cc3n(n2)CCCC3O)c1C (centres unmarked) [Compound 71, 4-hydroxy-N-(3'-(5-(((2-hydroxyethyl)amino)methyl)picolinamido)-2,2'-dimethyl-[1,1'-biphenyl]-3-yl)-4,5,6,7-tetrahydropyrazolo[1,5-a]pyridine-2-carboxamide] | < 10 nM
5 | CC(=O)NCCNC1CCCn2nc(C(=O)Nc3cccc(-c4cccc(NC(=O)c5ccc(CNCCO)cn5)c4C)c3C)cc21 (centres unmarked) [Compound 72, 4-((2-acetamidoethyl)amino)-N-(3'-(5-(((2-hydroxyethyl)amino)methyl)picolinamido)-2,2'-dimethyl-[1,1'-biphenyl]-3-yl)-4,5,6,7-tetrahydropyrazolo[1,5-a]pyridine-2-carboxamide] | < 10 nM
6 | Cc1c(NC(=O)c2ccc(CNCCO)cn2)cccc1-c1cccc(NC(=O)c2cc3n(n2)CCCC3N2CC[C@@H](O)C2)c1C (stereo partly drawn) [Compound 73, N-(3'-(5-(((2-hydroxyethyl)amino)methyl)picolinamido)-2,2'-dimethyl-[1,1'-biphenyl]-3-yl)-4-((R)-3-hydroxypyrrolidin-1-yl)-4,5,6,7-tetrahydropyrazolo[1,5-a]pyridine-2-carboxamide] | < 10 nM
7 | Cc1c(NC(=O)c2ccc(CNCCO)cn2)cccc1-c1cccc(NC(=O)c2cc3n(n2)CCCC3NCCO)c1C (centres unmarked) [Compound 74] | < 10 nM
8 | Cc1c(NC(=O)c2ccc(CNCCO)cn2)cccc1-c1cccc(NC(=O)c2cc3n(n2)CCCC3NCC2CCC(=O)N2)c1C (centres unmarked) [Compound 75, N-(3'-(5-(((2-hydroxyethyl)amino)methyl)picolinamido)-2,2'-dimethyl-[1,1'-biphenyl]-3-yl)-4-(((5-oxopyrrolidin-2-yl)methyl)amino)-4,5,6,7-tetrahydropyrazolo[1,5-a]pyridine-2-carboxamide] | < 10 nM
9 | Cc1c(NC(=O)c2ccc(CNCCO)cn2)cccc1-c1cccc(NC(=O)c2cc3n(n2)CCCC3NCC(=O)O)c1C (centres unmarked) [Compound 76, 2-((2-((3'-(5-(((2-hydroxyethyl)amino)methyl)picolinamido)-2,2'-dimethyl-[1,1'-biphenyl]-3-yl)carbamoyl)-4,5,6,7-tetrahydropyrazolo[1,5-a]pyridin-4-yl)amino)acetic acid] | < 10 nM
10 | Cc1c(NC(=O)c2ccc(CNCCO)cn2)cccc1-c1cccc(NC(=O)c2cc3n(n2)CCCC3N2CC[C@@H](C(=O)O)C2)c1C (stereo partly drawn) [Compound 77, (3R)-1-(2-((3'-(5-(((2-hydroxyethyl)amino)methyl)picolinamido)-2,2'-dimethyl-[1,1'-biphenyl]-3-yl)carbamoyl)-4,5,6,7-tetrahydropyrazolo[1,5-a]pyridin-4-yl)pyrrolidine-3-carboxylic acid] | < 10 nM
11 | Cc1c(NC(=O)c2ccc(CNCCO)cn2)cccc1-c1cccc(NC(=O)c2cc3n(n2)CCCC3N2CCC(O)CC2)c1C (centres unmarked) [Compound 78, N-(3'-(5-(((2-hydroxyethyl)amino)methyl)picolinamido)-2,2'-dimethyl-[1,1'-biphenyl]-3-yl)-4-(4-hydroxypiperidin-1-yl)-4,5,6,7-tetrahydropyrazolo[1,5-a]pyridine-2-carboxamide] | < 10 nM
12 | Cc1c(NC(=O)c2ccc(CNCCO)cn2)cccc1-c1cccc(NC(=O)c2cc3n(n2)CCCC3N2CCC(C(=O)O)CC2)c1C (centres unmarked) [Compound 79, 1-(2-((3'-(5-(((2-hydroxyethyl)amino)methyl)picolinamido)-2,2'-dimethyl-[1,1'-biphenyl]-3-yl)carbamoyl)-4,5,6,7-tetrahydropyrazolo[1,5-a]pyridin-4-yl)piperidine-4-carboxylic acid] | < 10 nM
13 | Cc1c(NC(=O)c2ccc(CNCCO)cn2)cccc1-c1cccc(NC(=O)c2cc3n(n2)CCCC3NC(C)(C)C(=O)O)c1C (centres unmarked) [Compound 80, 2-((2-((3'-(5-(((2-hydroxyethyl)amino)methyl)picolinamido)-2,2'-dimethyl-[1,1'-biphenyl]-3-yl)carbamoyl)-4,5,6,7-tetrahydropyrazolo[1,5-a]pyridin-4-yl)amino)-2-methylpropanoic acid] | < 10 nM
14 | O=C(Nc1cccc(-c2cccc(NC(=O)c3cc4n(n3)CCCC4O)c2Cl)c1Cl)c1ccc(CNCCO)cn1 (centres unmarked) [Compound 81, N-(2,2'-dichloro-3'-(5-(((2-hydroxyethyl)amino)methyl)picolinamido)-[1,1'-biphenyl]-3-yl)-4-hydroxy-4,5,6,7-tetrahydropyrazolo[1,5-a]pyridine-2-carboxamide] | < 10 nM
15 | CC(=O)NCCNC1CCCn2nc(C(=O)Nc3cccc(-c4cccc(NC(=O)c5ccc(CNCCO)cn5)c4Cl)c3Cl)cc21 (centres unmarked) [Compound 82, 4-((2-acetamidoethyl)amino)-N-(2,2'-dichloro-3'-(5-(((2-hydroxyethyl)amino)methyl)picolinamido)-[1,1'-biphenyl]-3-yl)-4,5,6,7-tetrahydropyrazolo[1,5-a]pyridine-2-carboxamide] | < 10 nM
16 | O=C(Nc1cccc(-c2cccc(NC(=O)c3cc4n(n3)CCCC4NCCO)c2Cl)c1Cl)c1ccc(CNCCO)cn1 (centres unmarked) [Compound 83, N-(2,2'-dichloro-3'-(5-(((2-hydroxyethyl)amino)methyl)picolinamido)-[1,1'-biphenyl]-3-yl)-4-((2-hydroxyethyl)amino)-4,5,6,7-tetrahydropyrazolo[1,5-a]pyridine-2-carboxamide] | < 10 nM
17 | O=C(Nc1cccc(-c2cccc(NC(=O)c3cc4n(n3)CCCC4N3CC[C@@H](O)C3)c2Cl)c1Cl)c1ccc(CNCCO)cn1 (stereo partly drawn) [Compound 85, N-(2,2'-dichloro-3'-(5-(((2-hydroxyethyl)amino)methyl)picolinamido)-[1,1'-biphenyl]-3-yl)-4-((R)-3-hydroxypyrrolidin-1-yl)-4,5,6,7-tetrahydropyrazolo[1,5-a]pyridine-2-carboxamide] | < 10 nM
18 | O=C(Nc1cccc(-c2cccc(NC(=O)c3cc4n(n3)CCCC4N3CC[C@@H](C(=O)O)C3)c2Cl)c1Cl)c1ccc(CNCCO)cn1 (stereo partly drawn) [Compound 86, (3R)-1-(2-((2,2'-dichloro-3'-(5-(((2-hydroxyethyl)amino)methyl)picolinamido)-[1,1'-biphenyl]-3-yl)carbamoyl)-4,5,6,7-tetrahydropyrazolo[1,5-a]pyridin-4-yl)pyrrolidine-3-carboxylic acid] | < 10 nM
19 | O=C(Nc1cccc(-c2cccc(NC(=O)c3cc4n(n3)CCCC4N3CCC(O)CC3)c2Cl)c1Cl)c1ccc(CNCCO)cn1 (centres unmarked) [Compound 87, N-(2,2'-dichloro-3'-(5-(((2-hydroxyethyl)amino)methyl)picolinamido)-[1,1'-biphenyl]-3-yl)-4-(4-hydroxypiperidin-1-yl)-4,5,6,7-tetrahydropyrazolo[1,5-a]pyridine-2-carboxamide] | 10 to 100 nM
20 | O=C(Nc1cccc(-c2cccc(NC(=O)c3cc4n(n3)CCCC4N3CCC(C(=O)O)CC3)c2Cl)c1Cl)c1ccc(CNCCO)cn1 (centres unmarked) [Compound 88, 1-(2-((2,2'-dichloro-3'-(5-(((2-hydroxyethyl)amino)methyl)picolinamido)-[1,1'-biphenyl]-3-yl)carbamoyl)-4,5,6,7-tetrahydropyrazolo[1,5-a]pyridin-4-yl)piperidine-4-carboxylic acid] | < 10 nM
21 | O=C(O)CNC1CCCn2nc(C(=O)Nc3cccc(-c4cccc(NC(=O)c5ccc(CNCCO)cn5)c4Cl)c3Cl)cc21 (centres unmarked) [Compound 89, 2-((2-((2,2'-dichloro-3'-(5-(((2-hydroxyethyl)amino)methyl)picolinamido)-[1,1'-biphenyl]-3-yl)carbamoyl)-4,5,6,7-tetrahydropyrazolo[1,5-a]pyridin-4-yl)amino)acetic acid] | < 10 nM
22 | CC(C)(NC1CCCn2nc(C(=O)Nc3cccc(-c4cccc(NC(=O)c5ccc(CNCCO)cn5)c4Cl)c3Cl)cc21)C(=O)O (centres unmarked) [Compound 90, 2-((2-((2,2'-dichloro-3'-(5-(((2-hydroxyethyl)amino)methyl)picolinamido)-[1,1'-biphenyl]-3-yl)carbamoyl)-4,5,6,7-tetrahydropyrazolo[1,5-a]pyridin-4-yl)amino)-2-methylpropanoic acid] | < 10 nM
23 | Cc1c(NC(=O)c2ccc(CN3CC[C@@H](O)C3)cn2)cccc1-c1cccc(NC(=O)c2cc3n(n2)CCCC3NCCO)c1C (stereo partly drawn) [Compound 91, 4-((2-hydroxyethyl)amino)-N-(3'-(5-(((R)-3-hydroxypyrrolidin-1-yl)methyl)picolinamido)-2,2'-dimethyl-[1,1'-biphenyl]-3-yl)-4,5,6,7-tetrahydropyrazolo[1,5-a]pyridine-2-carboxamide] | < 10 nM
